Reference: ChEMBL document CHEMBL5260858, “Targeting mycobacterial membranes and membrane proteins: Progress and limitations” (Bioorg Med Chem, 2023)
Converted amounts (≈) assume the structure as drawn.

Experiments:
[1] = test system: Mycobacterium tuberculosis; assay: Antitubercular activity against multidrug resistant Mycobacterium tuberculosis assessed as bacterial growth inhibition incubated for 6 days by resazurin based fluorescence assay; type: functional; details: 144 h, time 6 day
[2] = test system: Mycobacterium tuberculosis; assay: Antitubercular activity against extensively drug resistant Mycobacterium tuberculosis assessed as bacterial growth inhibition incubated for 6 days by resazurin based fluorescence assay; type: functional; details: 144 h, time 6 day
[3] = test system: Mycobacterium tuberculosis; assay: Antitubercular activity against Mycobacterium tuberculosis H37Rv overexpressing DprE1 assessed as bacterial growth inhibition; type: functional
[4] = test system: Mycobacterium tuberculosis; assay: Antitubercular activity against multidrug-resistant clinical isolate Mycobacterium tuberculosis CDCT-2 assessed as bacterial growth inhibition; type: functional
[5] = test system: Mycobacterium tuberculosis; assay: Antitubercular activity against multidrug-resistant clinical isolate Mycobacterium tuberculosis CDCT-27 assessed as bacterial growth inhibition; type: functional
[6] = test system: Mycobacterium tuberculosis; assay: Antitubercular activity against multidrug-resistant clinical isolate Mycobacterium tuberculosis CDCT-3 assessed as bacterial growth inhibition; type: functional
[7] = test system: Mycobacterium tuberculosis; assay: Antitubercular activity against multidrug resistant Mycobacterium tuberculosis SK-7782 assessed as bacterial growth inhibition by resazurin microtiter assay; type: functional
[8] = test system: Mycobacterium tuberculosis; assay: microbe, parasite or virus in culture; details: 144 h
[9] = test system: Mycobacterium tuberculosis; assay: microbe, parasite or virus in culture; details: 144 h; remark: listed apart in the source
[10] = test system: Mycobacterium tuberculosis; assay: Antimycobacterial activity against BTZ-resistant Mycobacterium tuberculosis NTB1 assessed as bacterial growth inhibition incubated for 6 days by resazurin dye based assay; type: functional; details: NTB1, 144 h, time 6 day
[11] = test system: Mycobacterium tuberculosis; assay: Antimycobacterial activity against multidrug resistant Mycobacterium tuberculosis 16833 assessed as bacterial growth inhibition incubated for 7 days by microplate Alamar blue assay; type: functional; details: Mycobacterium tuberculosis, 16833, 168 h; time 7 day
[12] = test system: Mycobacterium tuberculosis; assay: Antimycobacterial activity against multidrug resistant Mycobacterium tuberculosis 16995 assessed as bacterial growth inhibition incubated for 7 days by microplate Alamar blue assay; type: functional; details: Mycobacterium tuberculosis, 16995, 168 h; time 7 day
[13] = test system: Mycobacterium tuberculosis; assay: Antimycobacterial activity against clinically isolated multidrug resistant Mycobacterium tuberculosis assessed as bacterial growth inhibition incubated for 14 days by CLSI protocol based assay; type: functional; details: 336 h, time 14 day
[14] = test system: Mycobacterium tuberculosis; assay: Antitubercular activity against multidrug resistant Mycobacterium tuberculosis clinical isolate assessed as bacterial growth inhibition; type: functional
[15] = test system: Mycobacterium tuberculosis; assay: Antitubercular activity against ethambutol resistant Mycobacterium tuberculosis ATCC 35837 inhibition infected in RAW264.7 cells assessed as inhibition of intracellular bacterial growth incubated for 6 days by microplate alamar blue assay; type: functional; parameters: scale not given: the % may be the effect or the level left; details: time 6 day
[16] = test system: Mycobacterium tuberculosis; assay: Antitubercular activity against isoniazid resistant Mycobacterium tuberculosis ATCC 35822 infected in RAW264.7 cells assessed as inhibition of intracellular bacterial growth incubated for 6 days by microplate alamar blue assay; type: functional; parameters: scale not given: the % may be the effect or the level left; details: time 6 day
[17] = test system: Mycobacterium tuberculosis; assay: Antitubercular activity against rifampicin resistant Mycobacterium tuberculosis ATCC 35838 infected in RAW264.7 cells assessed as inhibition of intracellular bacterial growth incubated for 6 days by microplate alamar blue assay; type: functional; parameters: scale not given: the % may be the effect or the level left; details: time 6 day

Compound `c1cc2c(s1)CCOC21CCN(Cc2ccc3c(c2)OCCO3)CC1` has an MIC [1] of 0.3 µM (≈ 0.107 µg/mL) and an MIC [2] of 0.3 µM (≈ 0.107 µg/mL).

For `C[C@@H](NC(=O)c1cc([N+](=O)[O-])cc(C(F)(F)F)c1)c1ccccc1`, the MIC [3] was 310 ng/mL (≈ 0.916 µM).

In the case of `CCCc1ccc(NC(=O)COc2cc(C)nc3ccc(OC)cc23)cc1`, the MIC [4] is reported as < 2 ng/mL, the MIC [5] is reported as 4 ng/mL (≈ 0.011 µM) and the MIC [6] is reported as 8 ng/mL (≈ 0.022 µM).

`CCCCCc1ccc(NC(=O)COc2cc(C)nc3ccc(OC)cc23)cc1` was tested, and the MIC [4] was < 2 ng/mL, the MIC [5] was < 2 ng/mL and the MIC [6] was < 2 ng/mL.

In the case of `CCc1ccc(NC(=O)COc2cc(C)nc3ccc(OC)cc23)cc1`, the MIC [4] is reported as < 2 ng/mL, the MIC [5] is reported as 8 ng/mL (≈ 0.0228 µM) and the MIC [6] is reported as 8 ng/mL (≈ 0.0228 µM).

Compound `CC1(C)CC(=O)C(=CNc2ccccc2O)C(=O)C1` has an MIC90 [7] of 8000 ng/mL (≈ 30.9 µM).

`CNC(=O)c1c(-c2ccc(O)cc2)oc2ccc(O)c(CN3CCCCC3)c12` was tested, and the MIC [8] was 0.06 µM (≈ 0.0228 µg/mL) and the MIC [9] was 0.125 µM (≈ 0.0476 µg/mL).

With `COc1ccc(/C=C2/S/C(=N/N=C/c3ccccc3O)NC2=O)cc1` the MIC90 [7] was 1000 ng/mL (≈ 2.83 µM).

`O=c1nc(N2CCN(S(=O)(=O)C3CC3)CC2)sc2c([N+](=O)[O-])cc(C(F)(F)F)cc12` was tested, and the MIC [10] was 14700 ng/mL (≈ 31.7 µM).

For `O=c1nc(N2CC3CN(Cc4ccc(OC(F)(F)F)cc4)CC3C2)sc2c([N+](=O)[O-])cc(C(F)(F)F)cc12` (stereo not given), the MIC [11] was 0.085 µM (≈ 0.0476 µg/mL) and the MIC [12] was 0.053 µM (≈ 0.0297 µg/mL).

`CCS(=O)(=O)N1CCN(c2nc(=O)c3cc(C(F)(F)F)cc([N+](=O)[O-])c3s2)CC1` was tested, and the MIC [10] was 25100 ng/mL (≈ 55.5 µM).

In the case of `O=c1nc(N2CC3CN(Cc4ccc(Cl)c(F)c4)CC3C2)sc2c([N+](=O)[O-])cc(C(F)(F)F)cc12` (stereo not given), the MIC [11] is reported as 0.102 µM (≈ 0.0539 µg/mL) and the MIC [12] is reported as 0.073 µM (≈ 0.0386 µg/mL).

In the case of `CCc1ccc([C@H]2C[C@@H](C(F)(F)F)n3ncc(C(=O)NCc4ccc(OC)cc4)c3N2)cc1`, the MIC [1] is reported as 0.16 µM (≈ 0.0734 µg/mL) and the MIC [2] is reported as 0.3 µM (≈ 0.138 µg/mL).

For `O=c1nc(N2CCN(S(=O)(=O)c3cccs3)CC2)sc2c([N+](=O)[O-])cc(C(F)(F)F)cc12`, the MIC [10] was > 100000 ng/mL.

In the case of `C[C@@]1(COc2ccc(N3CCC(Oc4ccc(OC(F)(F)F)cc4)CC3)cc2)Cn2cc([N+](=O)[O-])nc2O1`, the MIC [13] is reported as 6 ng/mL (≈ 0.0112 µM).

In the case of `COc1nc2ccc(Br)cc2cc1[C@@H](c1ccccc1)[C@@](O)(CCN(C)C)c1cccc2ccccc12` [BEDAQUILINE], the MIC [14] is reported as 10 ng/mL (≈ 0.018 µM).

`CC(C)=CCC/C(C)=C/CNCCNC1C2CC3CC(C2)CC1C3` (stereo not given) [SQ109] showed an Activity [15] of 99%, an Activity [16] of 99% and an Activity [17] of 99%.
